Source: ChEMBL document CHEMBL5465560, “Selectivity Literature for EUbOPEN Chemogenomic Library” (2024)

How the values were obtained:
[1] = target: Protein arginine N-methyltransferase 3 (Homo sapiens, UniProt O60678); test: Selectivity interaction (Scintillation proximity assay) EUB0000261b PRMT3
[2] = target: T1, Histone-arginine methyltransferase CARM1 (Homo sapiens, UniProt Q86X55); test: Selectivity interaction (Scintillation proximity assay) EUB0000261b CARM1
T1 sequence (Q86X55 whole entry): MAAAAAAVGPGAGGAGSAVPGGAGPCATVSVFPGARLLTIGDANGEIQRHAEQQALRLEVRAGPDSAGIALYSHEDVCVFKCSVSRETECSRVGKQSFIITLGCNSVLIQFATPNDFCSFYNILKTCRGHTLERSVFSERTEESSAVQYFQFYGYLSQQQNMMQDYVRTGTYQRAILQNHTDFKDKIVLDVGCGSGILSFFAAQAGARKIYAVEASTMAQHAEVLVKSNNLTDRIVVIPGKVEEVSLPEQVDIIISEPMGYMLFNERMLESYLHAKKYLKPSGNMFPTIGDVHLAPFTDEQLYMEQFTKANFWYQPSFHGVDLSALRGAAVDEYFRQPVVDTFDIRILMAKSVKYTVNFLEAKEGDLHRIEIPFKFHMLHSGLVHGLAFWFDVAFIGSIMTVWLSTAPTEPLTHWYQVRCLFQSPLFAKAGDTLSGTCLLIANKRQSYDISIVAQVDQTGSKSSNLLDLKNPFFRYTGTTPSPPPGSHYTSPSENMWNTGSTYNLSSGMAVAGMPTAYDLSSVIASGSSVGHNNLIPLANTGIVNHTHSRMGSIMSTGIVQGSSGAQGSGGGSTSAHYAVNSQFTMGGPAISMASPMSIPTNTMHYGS

[3] = target: T2, Protein arginine N-methyltransferase 6 (Homo sapiens, UniProt Q96LA8); test: Selectivity interaction (Scintillation proximity assay) EUB0000261b PRMT6
[4] = target: Protein arginine N-methyltransferase 8 (Homo sapiens, UniProt Q9NR22); test: Selectivity interaction (Scintillation proximity assay) EUB0000261b PRMT8
[5] = target: T3, Protein arginine N-methyltransferase 1 (Homo sapiens, UniProt Q99873); test: Selectivity interaction (Scintillation proximity assay) EUB0000261b PRMT1
[6] = target: T4, Mitogen-activated protein kinase kinase kinase kinase 4 (Homo sapiens, UniProt O95819); test: (§1) Selectivity interaction (Radiometric assay (Reaction Biology)) EUB0000121b MAP4K4; settings: at 10 µM
CDK7/Cyclin H/MNAT1 [7] = target: T5, CDK7/Cyclin H/MNAT1 (Homo sapiens, UniProt P50613); test: Selectivity interaction ( In-vitro potency (TR-FRET-based LANCE Ultra assay)) EUB0000121b CDK7; type: protein-complex assay
[8] = target: CDK11A/Cyclin L2 (Homo sapiens) (UniProt Q9UQ88+Q96S94); test: Selectivity interaction (NanoBRET assay in HEK293T cells) EUB0000121b CDK11A; type: cell-based; settings: HEK-293T, at 10 µM
[9] = target: Calcium/calmodulin-dependent protein kinase type IV (Homo sapiens, UniProt Q16566); test: Selectivity interaction (Radiometric assay (Reaction Biology)) EUB0000121b CAMK4
[10] = target: CDK18/Cyclin Y (Homo sapiens) (UniProt Q07002+Q8ND76); test: Selectivity interaction (NanoBRET assay in HEK293T cells) EUB0000121b CDK18; type: cell-based; settings: HEK-293T, at 10 µM
[11] = target: CDK3/Cyclin E (Homo sapiens) (UniProt P24864+Q00526); test: Selectivity interaction (NanoBRET assay in HEK293T cells) EUB0000121b CDK3; type: cell-based; settings: HEK-293T, at 10 µM
[12] = target: CDK8/Cyclin C (Homo sapiens) (UniProt P49336+P24863); test: Selectivity interaction (NanoBRET assay in HEK293T cells) EUB0000121b CDK8; type: cell-based; settings: HEK-293T, at 10 µM
[13] = target: Cyclin-Y/Cyclin-dependent kinase 16 (Homo sapiens) (UniProt Q00536+Q8ND76); test: Selectivity interaction (NanoBRET assay in HEK293T cells) EUB0000121b CDK16; type: cell-based; settings: HEK-293T, at 10 µM
[14] = target: Cyclin-C/Cyclin-dependent kinase 19 (Homo sapiens) (UniProt Q9BWU1+P24863); test: Selectivity interaction (NanoBRET assay in HEK293T cells) EUB0000121b CDK19; type: cell-based; settings: HEK-293T, at 10 µM
CDK6/cyclin D3 = CDK6/cyclin D3 (Homo sapiens, UniProt Q00534); test: Selectivity interaction ( In-vitro potency (TR-FRET-based LANCE Ultra assay)) EUB0000121b CDK6; type: protein-complex assay
[15] = target: Cyclin-dependent kinase 2/cyclin A (Homo sapiens, UniProt P24941); test: Selectivity interaction (LanthaScreen Eu Kinase Binding Assay (Invitrogen)) EUB0000121b CDK2; type: protein-complex assay
[16] = target: Cyclin-dependent kinase 5/CDK5 activator 1 (Homo sapiens) (UniProt Q00535+Q15078); test: Selectivity interaction (NanoBRET assay in HEK293T cells) EUB0000121b CDK5; type: cell-based; settings: HEK-293T, at 10 µM
[17] = target: CDK15/Cyclin Y (Homo sapiens) (UniProt Q96Q40+Q8ND76); test: Selectivity interaction (NanoBRET assay in HEK293T cells) EUB0000121b CDK15; type: cell-based; settings: HEK-293T, at 10 µM
[18] = target: CDK6/cyclin D1 (Homo sapiens) (UniProt P24385+Q00534); test: Selectivity interaction (NanoBRET assay in HEK293T cells) EUB0000121b CDK6; type: cell-based; settings: HEK-293T, at 10 µM
[19] = target: CDK10/Cyclin L2 (Homo sapiens) (UniProt Q15131+Q96S94); test: Selectivity interaction (NanoBRET assay in HEK293T cells) EUB0000121b CDK10; type: cell-based; settings: HEK-293T, at 10 µM
[20] = target: CDK11B/Cyclin L2 (Homo sapiens) (UniProt P21127+Q96S94); test: Selectivity interaction (NanoBRET assay in HEK293T cells) EUB0000121b CDK11B; type: cell-based; settings: HEK-293T, at 10 µM
[21] = target: Cyclin-dependent kinase 2/cyclin E1 (Homo sapiens) (UniProt P24864+P24941); test: Selectivity interaction (NanoBRET assay in HEK293T cells) EUB0000121b CDK2; type: cell-based; settings: HEK-293T, at 10 µM
[22] = target: Cyclin-dependent kinase 7 (Homo sapiens, UniProt P50613); test: Selectivity interaction (NanoBRET assay in HEK293T cells) EUB0000121b CDK7; type: cell-based; settings: HEK-293T, at 10 µM
[23] = target: Cyclin-dependent kinase 13/Cyclin-K (Homo sapiens) (UniProt Q14004+O75909); test: Selectivity interaction (NanoBRET assay in HEK293T cells) EUB0000121b CDK13; type: cell-based; settings: HEK-293T, at 10 µM
[24] = target: CDK1/Cyclin E (Homo sapiens) (UniProt P06493+P24864); test: Selectivity interaction (NanoBRET assay in HEK293T cells) EUB0000121b CDK1; type: cell-based; settings: HEK-293T, at 10 µM
[25] = target: CDK9/Cyclin K (Homo sapiens) (UniProt P50750+O75909); test: Selectivity interaction (NanoBRET assay in HEK293T cells) EUB0000121b CDK9; type: cell-based; settings: HEK-293T, at 10 µM
[26] = target: T6, Glycogen synthase kinase-3 alpha (Homo sapiens, UniProt P49840); test: (§2) Selectivity interaction (Radiometric assay (Reaction Biology)) EUB0000121b GSK3A; settings: at 10 µM
CDK7/Cyclin H/MNAT1 [27] = target: T5, CDK7/Cyclin H/MNAT1; test: Selectivity interaction (LanthaScreen Eu Kinase Binding Assay (Invitrogen)) EUB0000121b CDK7; type: protein-complex assay
[28] = target: Cyclin-dependent kinase 14/Cyclin-Y (Homo sapiens) (UniProt O94921+Q8ND76); test: Selectivity interaction (NanoBRET assay in HEK293T cells) EUB0000121b CDK14; type: cell-based; settings: HEK-293T, at 10 µM
[29] = target: Cyclin-dependent kinase 4/cyclin D1 (Homo sapiens) (UniProt P11802+P24385); test: Selectivity interaction (NanoBRET assay in HEK293T cells) EUB0000121b CDK4; type: cell-based; settings: HEK-293T, at 10 µM
[30] = target: CDK20/Cyclin H (Homo sapiens) (UniProt P51946+Q8IZL9); test: Selectivity interaction (NanoBRET assay in HEK293T cells) EUB0000121b CDK20; type: cell-based; settings: HEK-293T, at 10 µM
[31] = target: T7, Tyrosine-protein kinase ABL2 (Homo sapiens, UniProt P42684); test: (§3) Selectivity interaction (Radiometric assay (Reaction Biology)) EUB0000121b ABL2
[32] = target: CDK12/Cyclin K (Homo sapiens) (UniProt O75909+Q9NYV4); test: Selectivity interaction (NanoBRET assay in HEK293T cells) EUB0000121b CDK12; type: cell-based; settings: HEK-293T, at 10 µM
[33] = target: CDK17/Cyclin-Y (Homo sapiens) (UniProt Q00537+Q8ND76); test: Selectivity interaction (NanoBRET assay in HEK293T cells) EUB0000121b CDK17; type: cell-based; settings: HEK-293T, at 10 µM
[34] = target: T4, Mitogen-activated protein kinase kinase kinase kinase 4; test: as §1
[35] = target: T7, Tyrosine-protein kinase ABL2; test: as §3; settings: at 10 µM
[36] = target: T6, Glycogen synthase kinase-3 alpha; test: as §2
Target sequence in this assay (P49840 whole entry): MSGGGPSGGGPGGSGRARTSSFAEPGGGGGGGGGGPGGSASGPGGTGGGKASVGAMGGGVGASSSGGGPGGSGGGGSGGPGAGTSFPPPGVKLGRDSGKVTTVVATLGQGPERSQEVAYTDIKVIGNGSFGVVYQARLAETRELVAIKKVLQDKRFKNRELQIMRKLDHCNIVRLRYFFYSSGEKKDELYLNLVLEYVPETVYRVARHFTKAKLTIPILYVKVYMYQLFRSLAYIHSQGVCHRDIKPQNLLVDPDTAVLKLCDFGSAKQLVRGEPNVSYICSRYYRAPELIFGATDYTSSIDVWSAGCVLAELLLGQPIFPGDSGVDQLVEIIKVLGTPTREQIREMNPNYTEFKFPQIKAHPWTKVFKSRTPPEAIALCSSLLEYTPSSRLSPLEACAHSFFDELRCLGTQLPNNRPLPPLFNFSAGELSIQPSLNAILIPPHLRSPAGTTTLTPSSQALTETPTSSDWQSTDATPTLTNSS

[37] = target: Protein arginine N-methyltransferase 5 (Homo sapiens, UniProt O14744); test: Selectivity interaction (Western blot assay (PRMT5 dependent SmB symmetric arginine dimethylation)) EUB0000236b PRMT5
[38] = target: Histone-lysine N-methyltransferase, H3 lysine-79 specific (Homo sapiens, UniProt Q8TEK3); test: Selectivity interaction (Western blot assay (DOT1L dependent H3K79 lysine dimethylation) ) EUB0000236b DOT1L
[39] = target: T3, Protein arginine N-methyltransferase 1; test: Selectivity interaction (Western blot assay (PRMT1 dependent H4R3 asymmetric arginine dimethylation)) EUB0000236b PRMT1
[40] = target: T8, Protein arginine N-methyltransferase 9 (Homo sapiens, UniProt Q6P2P2); test: Selectivity interaction (Western blot assay (PRMT9 dependent SAP145 […] arginine dimethylation)) EUB0000236b PRMT9
T8 sequence (Q6P2P2 whole entry): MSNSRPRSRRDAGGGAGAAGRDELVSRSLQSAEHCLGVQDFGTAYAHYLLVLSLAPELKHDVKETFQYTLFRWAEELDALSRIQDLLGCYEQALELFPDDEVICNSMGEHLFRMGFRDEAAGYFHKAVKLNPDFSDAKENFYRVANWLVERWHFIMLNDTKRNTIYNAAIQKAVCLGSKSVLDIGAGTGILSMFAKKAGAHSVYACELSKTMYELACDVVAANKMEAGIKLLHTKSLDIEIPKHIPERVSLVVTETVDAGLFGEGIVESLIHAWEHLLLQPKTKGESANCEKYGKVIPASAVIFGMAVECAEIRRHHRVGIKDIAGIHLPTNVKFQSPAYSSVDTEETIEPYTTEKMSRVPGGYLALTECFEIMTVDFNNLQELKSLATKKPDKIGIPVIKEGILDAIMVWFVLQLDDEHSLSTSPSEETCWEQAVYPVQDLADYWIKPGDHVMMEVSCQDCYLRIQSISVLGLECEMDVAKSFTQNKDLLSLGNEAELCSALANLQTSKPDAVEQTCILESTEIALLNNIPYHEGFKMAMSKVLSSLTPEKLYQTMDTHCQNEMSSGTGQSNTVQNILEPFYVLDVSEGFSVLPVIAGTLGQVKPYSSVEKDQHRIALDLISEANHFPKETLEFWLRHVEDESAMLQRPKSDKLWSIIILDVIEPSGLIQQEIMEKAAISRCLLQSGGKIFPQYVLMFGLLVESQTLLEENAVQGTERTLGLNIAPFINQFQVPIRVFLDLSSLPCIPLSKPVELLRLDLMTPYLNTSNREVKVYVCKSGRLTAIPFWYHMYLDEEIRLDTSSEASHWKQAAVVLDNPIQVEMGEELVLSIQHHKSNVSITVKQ

[41] = target: T1, Histone-arginine methyltransferase CARM1; test: Selectivity interaction (Western blot assay (PRMT4 dependent BAF155 asymmetric arginine dimethylation)) EUB0000236b CARM1
[42] = target: T2, Protein arginine N-methyltransferase 6; test: Selectivity interaction (Western blot assay (PRMT6 dependent H4R3 asymmetric arginine dimethylation)) EUB0000236b PRMT6

T7 sequence (P42684 whole entry): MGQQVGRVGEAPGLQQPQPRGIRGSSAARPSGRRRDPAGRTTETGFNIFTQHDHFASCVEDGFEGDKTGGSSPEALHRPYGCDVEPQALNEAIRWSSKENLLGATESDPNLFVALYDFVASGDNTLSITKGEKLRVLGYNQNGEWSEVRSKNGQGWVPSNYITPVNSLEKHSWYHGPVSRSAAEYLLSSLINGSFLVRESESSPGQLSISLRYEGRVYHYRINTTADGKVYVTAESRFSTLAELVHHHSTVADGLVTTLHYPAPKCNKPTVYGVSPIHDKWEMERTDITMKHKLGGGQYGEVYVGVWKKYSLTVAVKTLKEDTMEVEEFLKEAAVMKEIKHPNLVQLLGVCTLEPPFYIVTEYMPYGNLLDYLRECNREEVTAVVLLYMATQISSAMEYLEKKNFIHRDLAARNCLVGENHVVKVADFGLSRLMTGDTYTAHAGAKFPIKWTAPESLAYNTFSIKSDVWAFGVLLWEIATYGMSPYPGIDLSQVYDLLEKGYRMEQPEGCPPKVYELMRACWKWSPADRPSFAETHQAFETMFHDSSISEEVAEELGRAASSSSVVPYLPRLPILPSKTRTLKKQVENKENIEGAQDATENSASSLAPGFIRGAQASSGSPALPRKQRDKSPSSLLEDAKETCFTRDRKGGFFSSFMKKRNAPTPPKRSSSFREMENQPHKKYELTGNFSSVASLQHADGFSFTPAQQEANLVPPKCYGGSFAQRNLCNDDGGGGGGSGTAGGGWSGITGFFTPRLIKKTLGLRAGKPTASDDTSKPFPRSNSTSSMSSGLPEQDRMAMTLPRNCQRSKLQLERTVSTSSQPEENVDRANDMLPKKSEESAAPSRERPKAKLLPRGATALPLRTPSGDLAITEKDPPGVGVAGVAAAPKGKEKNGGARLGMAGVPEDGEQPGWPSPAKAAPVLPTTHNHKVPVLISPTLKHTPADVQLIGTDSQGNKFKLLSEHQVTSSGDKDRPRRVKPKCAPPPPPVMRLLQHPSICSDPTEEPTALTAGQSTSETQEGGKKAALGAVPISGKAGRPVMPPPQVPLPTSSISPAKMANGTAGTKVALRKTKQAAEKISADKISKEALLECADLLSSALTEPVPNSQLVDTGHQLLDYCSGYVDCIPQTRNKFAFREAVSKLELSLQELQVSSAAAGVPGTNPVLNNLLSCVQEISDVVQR
T5 sequence (P51946 whole entry): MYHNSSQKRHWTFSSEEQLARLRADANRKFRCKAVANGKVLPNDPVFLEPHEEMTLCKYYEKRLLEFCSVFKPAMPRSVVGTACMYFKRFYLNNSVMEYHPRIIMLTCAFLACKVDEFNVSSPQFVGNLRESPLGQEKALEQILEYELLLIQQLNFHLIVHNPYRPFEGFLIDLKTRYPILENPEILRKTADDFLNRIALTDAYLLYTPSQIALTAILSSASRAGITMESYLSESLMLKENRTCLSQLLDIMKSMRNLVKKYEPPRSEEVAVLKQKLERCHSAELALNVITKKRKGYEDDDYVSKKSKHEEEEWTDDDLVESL
T5 sequence (P50613 whole entry): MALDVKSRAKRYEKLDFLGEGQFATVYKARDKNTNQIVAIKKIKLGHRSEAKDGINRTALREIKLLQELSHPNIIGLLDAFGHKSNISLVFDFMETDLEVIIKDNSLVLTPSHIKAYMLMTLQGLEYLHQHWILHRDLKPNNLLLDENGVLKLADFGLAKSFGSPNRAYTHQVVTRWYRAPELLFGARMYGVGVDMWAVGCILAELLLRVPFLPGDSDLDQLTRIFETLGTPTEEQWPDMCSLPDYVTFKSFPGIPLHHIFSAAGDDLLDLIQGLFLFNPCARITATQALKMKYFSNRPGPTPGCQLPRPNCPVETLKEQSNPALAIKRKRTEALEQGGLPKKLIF
T5 sequence (P51948 whole entry, further chain): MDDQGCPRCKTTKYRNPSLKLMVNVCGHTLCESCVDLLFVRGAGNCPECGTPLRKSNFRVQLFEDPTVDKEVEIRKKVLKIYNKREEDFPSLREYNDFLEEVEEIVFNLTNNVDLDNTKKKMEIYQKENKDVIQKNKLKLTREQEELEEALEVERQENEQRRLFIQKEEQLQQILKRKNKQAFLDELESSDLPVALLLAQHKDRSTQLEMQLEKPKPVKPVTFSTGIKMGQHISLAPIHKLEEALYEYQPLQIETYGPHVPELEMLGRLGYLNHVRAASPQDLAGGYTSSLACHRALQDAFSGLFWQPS
T2 sequence (Q96LA8 whole entry): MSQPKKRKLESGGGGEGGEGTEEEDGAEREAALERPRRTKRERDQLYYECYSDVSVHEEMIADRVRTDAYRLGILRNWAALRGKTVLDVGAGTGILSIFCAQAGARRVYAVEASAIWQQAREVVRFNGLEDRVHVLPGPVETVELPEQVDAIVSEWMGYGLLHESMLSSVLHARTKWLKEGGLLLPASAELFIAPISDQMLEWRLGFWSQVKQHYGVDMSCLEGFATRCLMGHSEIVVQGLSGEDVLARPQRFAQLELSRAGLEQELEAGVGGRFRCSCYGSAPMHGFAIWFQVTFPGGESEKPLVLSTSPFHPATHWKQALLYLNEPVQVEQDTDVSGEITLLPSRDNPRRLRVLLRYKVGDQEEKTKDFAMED
T3 sequence (Q99873 whole entry): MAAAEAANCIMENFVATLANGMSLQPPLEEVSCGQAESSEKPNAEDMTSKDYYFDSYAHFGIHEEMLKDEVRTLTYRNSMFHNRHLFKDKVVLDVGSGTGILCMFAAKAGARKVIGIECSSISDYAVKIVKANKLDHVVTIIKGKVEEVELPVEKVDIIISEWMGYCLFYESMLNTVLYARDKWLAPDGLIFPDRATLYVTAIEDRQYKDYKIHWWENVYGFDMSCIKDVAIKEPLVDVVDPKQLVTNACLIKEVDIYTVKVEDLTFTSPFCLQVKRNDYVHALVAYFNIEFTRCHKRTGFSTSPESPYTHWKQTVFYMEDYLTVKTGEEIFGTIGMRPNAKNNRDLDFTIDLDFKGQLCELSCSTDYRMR
Sequence of CDK3/Cyclin E (Homo sapiens) (P24864 whole entry, looked up): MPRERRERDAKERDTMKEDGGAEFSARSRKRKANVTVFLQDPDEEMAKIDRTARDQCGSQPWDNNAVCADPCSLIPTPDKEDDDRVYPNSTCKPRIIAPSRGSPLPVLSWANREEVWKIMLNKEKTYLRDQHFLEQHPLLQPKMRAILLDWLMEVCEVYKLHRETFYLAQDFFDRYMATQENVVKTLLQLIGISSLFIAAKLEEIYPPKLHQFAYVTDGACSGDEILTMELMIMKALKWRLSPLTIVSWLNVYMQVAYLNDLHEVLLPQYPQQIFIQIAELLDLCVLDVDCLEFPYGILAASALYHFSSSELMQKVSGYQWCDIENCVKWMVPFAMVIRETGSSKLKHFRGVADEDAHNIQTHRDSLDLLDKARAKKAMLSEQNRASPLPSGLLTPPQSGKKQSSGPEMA
Sequence of CDK3/Cyclin E (Homo sapiens) (Q00526 whole entry, looked up): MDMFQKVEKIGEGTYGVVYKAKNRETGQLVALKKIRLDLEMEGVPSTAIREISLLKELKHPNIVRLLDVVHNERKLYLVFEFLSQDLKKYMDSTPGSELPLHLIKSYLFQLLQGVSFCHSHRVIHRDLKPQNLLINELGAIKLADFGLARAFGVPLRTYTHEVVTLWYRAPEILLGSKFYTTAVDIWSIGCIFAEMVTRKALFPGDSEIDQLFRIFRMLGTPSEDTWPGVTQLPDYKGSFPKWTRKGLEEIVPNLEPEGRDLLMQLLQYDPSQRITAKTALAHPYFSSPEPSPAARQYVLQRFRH
Sequence of Calcium/calmodulin-dependent protein kinase type IV (Q16566 whole entry): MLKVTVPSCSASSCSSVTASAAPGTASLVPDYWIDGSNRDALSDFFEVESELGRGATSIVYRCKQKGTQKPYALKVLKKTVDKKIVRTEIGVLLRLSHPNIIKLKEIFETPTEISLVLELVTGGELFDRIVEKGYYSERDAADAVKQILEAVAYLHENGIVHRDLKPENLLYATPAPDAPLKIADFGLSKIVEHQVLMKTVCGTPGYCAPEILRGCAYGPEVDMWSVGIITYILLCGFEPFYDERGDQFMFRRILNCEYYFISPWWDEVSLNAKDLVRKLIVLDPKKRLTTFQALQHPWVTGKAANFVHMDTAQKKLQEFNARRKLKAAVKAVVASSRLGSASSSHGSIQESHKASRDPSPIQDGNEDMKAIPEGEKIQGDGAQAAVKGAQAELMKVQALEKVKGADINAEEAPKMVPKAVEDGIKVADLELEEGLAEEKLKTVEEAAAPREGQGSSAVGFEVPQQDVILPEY
Sequence of CDK1/Cyclin E (Homo sapiens) (P06493 whole entry, looked up): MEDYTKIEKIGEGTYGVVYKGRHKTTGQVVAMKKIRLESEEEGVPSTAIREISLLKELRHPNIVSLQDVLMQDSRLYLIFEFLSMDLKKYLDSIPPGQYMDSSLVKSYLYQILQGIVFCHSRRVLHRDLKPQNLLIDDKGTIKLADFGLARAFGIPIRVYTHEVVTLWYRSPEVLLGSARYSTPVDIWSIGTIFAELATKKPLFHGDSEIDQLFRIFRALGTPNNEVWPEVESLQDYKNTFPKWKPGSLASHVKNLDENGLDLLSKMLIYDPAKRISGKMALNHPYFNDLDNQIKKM
Sequence of CDK1/Cyclin E (Homo sapiens) (P24864 whole entry, looked up): as the sequence (P24864 whole entry, looked up) above
Sequence of Cyclin-dependent kinase 7 (P50613 whole entry): as the sequence (P50613 whole entry) above

CC(C)Oc1ccc(-c2c[nH]cc2CN(C)CCO)cc1
IC50 [1]: > 20 µM
IC50 [2]: > 20 µM
IC50 [3]: > 20 µM
IC50 [4]: > 20 µM
IC50 [5]: > 20 µM

COc1ccccc1-c1cc(Nc2cccc(CS(N)(=O)=O)c2)ncn1
% of control [6]: 17.5%
IC50 (CDK7/Cyclin H/MNAT1 [7]): > 10 µM
% of inhibition [8]: 7.5%
IC50 [9]: > 20 µM
% of inhibition [10]: 8.7%
% of inhibition [11]: 27.7%
% of inhibition [12]: 5.3%
% of inhibition [13]: 14.8%
% of inhibition [14]: 11.4%
IC50 (CDK6/cyclin D3): > 10 µM
IC50 [15]: 1.01 µM
% of inhibition [16]: 11.4%
% of inhibition [17]: -1%
% of inhibition [18]: 38.7%
% of inhibition [19]: 6.6%
% of inhibition [20]: 10.2%
% of inhibition [21]: 18.7%
% of inhibition [22]: -9.3%
% of inhibition [23]: 10.2%
% of inhibition [24]: 31.6%
% of inhibition [25]: 88.8%
% of control [26]: 9.5%
IC50 (CDK7/Cyclin H/MNAT1 [27]): 16 µM
% of inhibition [28]: -2.3%
% of inhibition [29]: 44%
% of inhibition [30]: 14.5%
IC50 [31]: 3.64 µM
% of inhibition [32]: 22.1%
% of inhibition [33]: 19%
IC50 [34]: 0.82 µM
% of control [35]: 27%
IC50 [36]: 1.46 µM

CC1=C(C)C(=O)C(C(C)(C)CC(=O)N(CCCCSC[C@H]2O[C@@H](n3cnc4c(N)ncnc43)[C@@H]3OC(C)(C)O[C@@H]32)Cc2cccc(-c3ccc(Cl)cc3)c2)=C(C)C1=O
EC50 [37]: > 0.005 µM
EC50 [38]: > 0.005 µM
EC50 [39]: > 0.005 µM
EC50 [40]: > 0.005 µM
EC50 [41]: > 0.005 µM
EC50 [42]: > 0.005 µM
